What is called IC50 is the point on the concentration scale where inhibition reaches its midpoint.

In patent publication US20260015363A1, “SUBSTITUTED PYRIMIDINE-FUSED RING INHIBITOR, METHOD FOR PREPARING SAME, AND USE THEREOF” (Suzhou Zelgen Biopharmaceuticals Co., Ltd., priority 2022, published 2026) one finds IC50 data, which are given here for 17 molecules.

In one assay the test system is AsPC-1 (G12D). The assay can be described thus: KRAS mutant cell proliferation inhibition assay (CellTiter-Glo 3D), AsPC-1. It counts as cell-based, human. The conditions noted are these: AsPC-1 (G12D) cells, 7 days. The method, then: (§1) Positive control: MRTX1133
(§2) • (a) The cells were thawed in T75 cell culture flasks: • (b) When 80%-90% cell confluence was achieved, the cells were passaged.
(§3) The diluted test compound was added to a 384-well cell culture plate using a nanoliter pipetting system, and replicate wells were set. An equal volume of medium was added to the positive control group; an equal volume of DMSO was added to the negative control group. The plate was centrifuged at 1000 rpm at room temperature for 1 min.
(§4) The cells were seeded into a) 384-well culture plate. An equal volume of cells was added to the negative control group, and only an equal volume of medium was added to the positive control group. The plate was centrifuged at 1000 rpm at room temperature for 1 min. The final DMSO concentration in the final compound was 0.5%. The plate was incubated in a thermostatic incubator at 37° C. with 5% CO2 for 7 days.
(§5) CellTiter-Glo® 3D was added to b) 384-well cell culture plate at 20 μL/well. The plate was shaken at 320 rpm in the dark for 20 min, and incubated at room temperature in the dark for 2 h. The luminescence values were read using an Envision multi-mode microplate reader.
(§6) The inhibition rates (IRs) of the test compounds were calculated according to the following formula: IR (%)=(1−(RLU compound−RLU blank control)/(RLU vehicle control−RLU blank control))×100%. The inhibition rates of the compounds at different concentrations were calculated in Excel, and then inhibition curves were plotted and relevant parameters including minimum inhibition rate, maximum inhibition rate and IC50 were calculated using GraphPad Prism software.
(ATP-based viability assays read luminescence as a measure of living cells.)

For the next assay, the system named is SW480 (G12V). In words: KRAS mutant cell proliferation inhibition assay (CellTiter-Glo 3D), SW480. It counts as cell-based. The conditions noted are these: SW480 (G12V) cells, 7 days. The method, then: as §1, §2, §3, §4, §5, §6
Another assay concerns H727 (G12V). In words: KRAS mutant cell proliferation inhibition assay (CellTiter-Glo 3D), H727. The following applies: H727 (G12V) cells, 7 days. It counts as cell-based, human. The method, then: as §1, §2, §3, §4, §5, §6
The next assay relates to PSN-1 (G12R). In words: KRAS mutant cell proliferation inhibition assay (CellTiter-Glo 3D), PSN-1. The following applies: PSN-1 (G12R) cells, 7 days, read-out: PSN1 IC50. It counts as cell-based. The method, then: as §1, §2, §3, §4, §5, §6
The subject of the next assay is MNK1 (WT). The assay can be described thus: Cell proliferation inhibition assay (CellTiter-Glo 3D), MNK1. It counts as cell-based, human. The following applies: MNK1 (WT) cells, 7 days. The method, then:
as §1, §2, §3, §4, §5, §6

Each structure is given as a SMILES string. A value given as a limit tells only on which side of the number the result lay.

Consider `CCc1c(F)ccc2cc(O)cc(-c3ncc4c(N5CCC[C@]6(CCO6)C5)nc(OC[C@@]56CCCN5C[C@@]5(CC5(F)F)C6)nc4c3F)c12` (single isomer, unassigned) [Example A-16B], for which the IC50 in the assay on AsPC-1 (G12D) (Homo sapiens, ASPC1, 168 h) came to 387 nM; in the assay with SW480 (G12V) (Homo sapiens, 168 h), 660 nM. For the molecule `CCc1c(F)ccc2cc(O)cc(-c3ncc4c(N5CCC[C@](C)(O)C5)nc(OCC56CCCN5CC5(C6)CC5(F)F)nc4c3F)c12` (stereo in doubt) [Example A-13A, (S)-1-(2-(((trans)-2,2-difluorodihydro-1′H,3′H-spiro[cyclopropane-1,2′-pyrrolizin]-7a′ (5′H)-yl)methoxy)-7-(8-ethyl-7-fluoro-3-hydroxynaphthalen-1-yl)-8-fluoropyrido[4,3-d]pyrimidin-4-yl)-3-methylpiperidin-3-ol], the IC50 was above 1000 nM with AsPC-1 (G12D), 1990 nM in the assay on H727 (G12V), above 10000 nM with PSN-1 (G12R) and 634 nM with MNK1 (WT). Take `CCc1c(F)ccc2cc(O)cc(-c3ncc4c(N5CCC[C@@]6(CCO6)C5)nc(OC[C@@]56CCCN5C[C@@]5(CC5(F)F)C6)nc4c3F)c12` [Example A-16A, 4-(2-(((15,7a'S)-2,2-difluorodihydro-1′H,3′H-spiro[cyclopropane-1,2′-pyrrolizin]-7a′ (5′H)-yl)methoxy)-8-fluoro-4-((R)-1-oxa-6-azaspiro[3.5]nonan-6-yl)pyrido[4,3-d]pyrimidin-7-yl)-5-ethyl-6-fluoronaphthalen-2-ol]: the IC50 stood at 5.7 nM in the assay with AsPC-1 (G12D) and 11.1 nM with SW480 (G12V).

Turning to `CCc1c(F)ccc2cc(O)cc(-c3ncc4c(N5CCCOC6CC65)nc(OC[C@@]56CCCN5C[C@@]5(CC5(F)F)C6)nc4c3F)c12` (stereo partly drawn) [Example A-28, 4-(4-(2-Oxa-6-azabicyclo[5.1.0]octan-6-yl)-2-(((1S,7a'S)-2,2-difluorodihydro-1′H,3′ H-spiro[cyclopropane-1,2′-pyrrolizin]-7a′ (5′H)-yl)methoxy)-8-fluoropyrido[4,3-d]pyrimidin-7-yl)-5-ethyl-6-fluoronaphthalen-2-ol], the IC50 in the assay on AsPC-1 (G12D) (Homo sapiens, ASPC1, 168 h) amounted to 27.6 nM; with SW480 (G12V) (Homo sapiens, 168 h) it was 37.3 nM.

For the molecule `C#Cc1c(F)ccc2cc(O)cc(-c3ncc4c(N5CCCOC6CC65)nc(OC[C@@]56CCCN5C[C@@]5(CC5(F)F)C6)nc4c3F)c12` (stereo partly drawn) [Example A-29, 4-(4-((cis)-2-Oxa-6-azabicyclo[5.1.0]octan-6-yl)-2-(((1,5,7a'S)-2,2-difluorodihydro-1′H,3′H-spiro[cyclopropane-1,2′-pyrrolizin]-7a′ (5′H)-yl)methoxy)-8-fluoropyrido[4,3-d]pyrimidin-7-yl)-5-ethynyl-6-fluoronaphthalen-2-ol], the IC50 in the assay with AsPC-1 (G12D) (Homo sapiens, ASPC1, 168 h) was 4.85 nM; in the assay on SW480 (G12V) (Homo sapiens, 168 h), 2.1 nM. `CCc1c(F)ccc2cc(O)cc(-c3ncc4c(N5CCC6CCC(C5)O6)nc(OC[C@@]56CCCN5C[C@@]5(CC5(F)F)C6)nc4c3F)c12` (some centres unmarked) [Example A-31]: the IC50 in the assay with AsPC-1 (G12D) (Homo sapiens, ASPC1, 168 h) was 736 nM; with SW480 (G12V) (Homo sapiens, 168 h), 651 nM.

`Nc1cc(Cl)c(C(F)(F)F)c(-c2ncc3c(N4CC5COC(C5)C4)nc(OC[C@@]45CCCN4C[C@@]4(CC4(F)F)C5)nc3c2F)c1` (stereo partly drawn) [Example A-32, 3-(4-(6-Oxa-3-azabicyclo[4.2.1]nonan-3-yl)-2-(((1S,7a'S)-2,2-difluorodihydro-1′H,3′H-spiro[cyclopropane-1,2′-pyrrolizin]-7a′ (5′H)-yl)methoxy)-8-fluoropyrido[4,3-d]pyrimidin-7-yl)-5-chloro-4-(trifluoromethyl)aniline]: the IC50 in the assay with SW480 (G12V) (Homo sapiens, 168 h) worked out at 336 nM. Regarding `CCc1c(F)ccc2cc(O)cc(-c3ncc4c(N5CC6COC(C6)C5)nc(OC[C@@]56CCCN5C[C@@]5(CC5(F)F)C6)nc4c3F)c12` (some centres unmarked) [Example A-33], the IC50 with SW480 (G12V) (Homo sapiens, 168 h) worked out at 168 nM. For `CCc1c(F)ccc2cc(O)cc(-c3ncc4c(N5CCOCC(F)C5)nc(OC[C@@]56CCCN5C[C@@]5(CC5(F)F)C6)nc4c3F)c12` (stereo partly drawn) [Example A-34, 4-(2-(((1S,7a'S)-2,2-Difluorodihydro-1′H,3′H-spiro[cyclopropane-1,2′-pyrrolizin]-7a′ (5′H)-yl)methoxy)-8-fluoro-4-(6-fluoro-1,4-oxazepan-4-yl)pyrido[4,3-d]pyrimidin-7-yl)-5-ethyl-6-fluoronaphthalen-2-ol], in the assay with SW480 (G12V) (Homo sapiens, 168 h), the IC50 came to 66.7 nM. Same read-out and setting: then `CCc1c(F)ccc2cc(O)cc(-c3ncc4c(N5CCOCC(F)(F)C5)nc(OC[C@@]56CCCN5C[C@@]5(CC5(F)F)C6)nc4c3F)c12` [Example A-35, 4-(4-(6,6-Difluoro-1,4-oxazepan-4-yl)-2-(((1.S,7a'S)-2,2-difluorodihydro-1′H,3′H-spiro[cyclopropane-1,2′-pyrrolizin]-7a′ (5′H)-yl)methoxy)-8-fluoropyrido[4,3-d]pyrimidin-7-yl)-5-ethyl-6-fluoronaphthalen-2-ol], with 159 nM; and `CCc1c(F)ccc2cc(O)cc(-c3ncc4c(N5CCCCC(F)C5)nc(OC[C@@]56CCCN5C[C@@]5(CC5(F)F)C6)nc4c3F)c12` (stereo partly drawn) [Example A-36, 4-(2-(((1S,7a'S)-2,2-Difluorodihydro-1′H,3′H-spiro[cyclopropane-1,2′-pyrrolizin]-7a′ (5′H)-yl)methoxy)-8-fluoro-4-(3-fluoroazepan-1-yl)pyrido[4,3-d]pyrimidin-7-yl)-5-ethyl-6-fluoronaphthalen-2-ol], with 102 nM.

For the molecule `CCc1c(F)ccc2cc(O)cc(-c3ncc4c(N5CCOCCC5C)nc(OC[C@@]56CCCN5C[C@@]5(CC5(F)F)C6)nc4c3F)c12` (stereo partly drawn) [Example A-37, 4-(2-(((1S,7a'S)-2,2-Difluorodihydro-1′H,3′H-spiro[cyclopropane-1,2′-pyrrolizin]-7a′ (5′H)-yl)methoxy)-8-fluoro-4-(5-methyl-1,4-oxazepan-4-yl)pyrido[4,3-d]pyrimidin-7-yl)-5-ethyl-6-fluoronaphthalen-2-ol], the IC50 in the assay with AsPC-1 (G12D) (Homo sapiens, ASPC1, 168 h) was 572 nM; in the assay on SW480 (G12V) (Homo sapiens, 168 h), 307 nM. As to `C#Cc1c(F)ccc2cc(O)cc(-c3ncc4c(N(C)[C@H]5C[C@@H]5F)nc(OC[C@@]56CCCN5C[C@@]5(CC5(F)F)C6)nc4c3F)c12` [Example A-44, 4-(2-(((15,7a'S)-2,2-Difluorodihydro-1′H,3′H-spiro[cyclopropane-1,2′-pyrrolizin]-7a′ (5′H)-yl)methoxy)-8-fluoro-4-(((trans)-2-fluorocyclopropyl)(methyl)amino)pyrido[4,3-d]pyrimidin-7-yl)-5-ethynyl-6-fluoronaphthalen-2-ol], the IC50 with AsPC-1 (G12D) (Homo sapiens, ASPC1, 168 h) came out at 25.1 nM; with SW480 (G12V) (Homo sapiens, 168 h) it was 7.13 nM. Regarding `CCc1c(F)ccc2cc(O)cc(-c3ncc4c(N(C)[C@H]5C[C@@H]5F)nc(OC[C@@]56CCCN5C[C@@]5(CC5(F)F)C6)nc4c3F)c12` [Example A-45, 4-(2-(((1,5,7a'S)-2,2-Difluorodihydro-1′H,3′H-spiro[cyclopropane-1,2′-pyrrolizin]-7a′ (5′H)-yl)methoxy)-8-fluoro-4-(((trans)-2-fluorocyclopropyl)(methyl)amino)pyrido[4,3-d]pyrimidin-7-yl)-5-ethyl-6-fluoronaphthalen-2-ol], the IC50 in the assay on AsPC-1 (G12D) (Homo sapiens, ASPC1, 168 h) amounted to 74.4 nM; in the assay with SW480 (G12V) (Homo sapiens, 168 h), 41 nM. As for `CN(c1nc(OC[C@@]23CCCN2C[C@@]2(CC2(F)F)C3)nc2c(F)c(-c3cc(N)cc(Cl)c3C(F)(F)F)ncc12)[C@H]1C[C@@H]1F` [Example A-46, 7-(5-Amino-3-chloro-2-(trifluoromethyl)phenyl)-2-(((15,7a'S)-2,2-difluorodihydro-1′H,3′H-spiro[cyclopropane-1,2′-pyrrolizin]-7a′ (5′H)-yl)methoxy)-8-fluoro-N-((trans)-2-fluorocyclopropvl)-N-methylpyrido[4,3-d]pyrimidin-4-amine], the IC50 with AsPC-1 (G12D) (Homo sapiens, ASPC1, 168 h) was found to be 732 nM; with SW480 (G12V) (Homo sapiens, 168 h), 482 nM. With `CN(C)C(=O)c1cc2n(n1)CCCN(c1nc(OC[C@@]34CCCN3C[C@@]3(CC3(F)F)C4)nc3c1CCN(c1ccc(F)c4sc(N)c(C#N)c14)C3)C2` [Example B-15, 5-(7-(2-Amino-3-cyano-7-fluorobenzo[b]thiophen-4-yl)-2-(((trans)-2,2-fluorodihydro-1′H,3′H-spiro[cyclopropane-1,2′-pyrrolizin]-7a′ (5′H)-yl)methoxy)-5,6,7,8-tetrahydropyrido[3,4-d]pyrimidin-4-yl)-N,N-dimethyl-5,6,7,8-tetrahydro-4H-pyrazolo[1,5-a][1,4]diazepine-2-carboxamide], the IC50 in the assay on AsPC-1 (G12D) (Homo sapiens, ASPC1, 168 h) was above 1000 nM.

In turn, `CN(C)C(=O)c1cc2n(n1)CCCN(c1nc(OC[C@]34CCCN3C[C@]3(CC3(F)F)C4)nc3c1CCN(c1cccc4ccc(F)c(Cl)c14)C3)C2` [Example B-16, 5-(7-(8-Chloro-7-fluoronaphthalen-1-yl)-2-(((trans)-2,2-2,2-fluorodihydro-1′H,3′H-spiro[cyclopropane-1,2′-pyrrolizin]-7a′ (5′H)-yl)methoxy)-5,6,7,8-tetrahydropyrido[3,4-d]pyrimidin-4-yl)-N,N-dimethyl-5,6,7,8-tetrahydro-4H-pyrazolo[1,5-a][1,4]diazepine-2-carboxamide] returned an IC50 in the assay with AsPC-1 (G12D) (Homo sapiens, ASPC1, 168 h) above 1000 nM.
